# Residues, ends and D or L forms follow the SMILES beside them.
# Biological target: T1, Protein S (Homo sapiens, UniProt P07225)
# T1 sequence (P07225 41-676 limits assumed): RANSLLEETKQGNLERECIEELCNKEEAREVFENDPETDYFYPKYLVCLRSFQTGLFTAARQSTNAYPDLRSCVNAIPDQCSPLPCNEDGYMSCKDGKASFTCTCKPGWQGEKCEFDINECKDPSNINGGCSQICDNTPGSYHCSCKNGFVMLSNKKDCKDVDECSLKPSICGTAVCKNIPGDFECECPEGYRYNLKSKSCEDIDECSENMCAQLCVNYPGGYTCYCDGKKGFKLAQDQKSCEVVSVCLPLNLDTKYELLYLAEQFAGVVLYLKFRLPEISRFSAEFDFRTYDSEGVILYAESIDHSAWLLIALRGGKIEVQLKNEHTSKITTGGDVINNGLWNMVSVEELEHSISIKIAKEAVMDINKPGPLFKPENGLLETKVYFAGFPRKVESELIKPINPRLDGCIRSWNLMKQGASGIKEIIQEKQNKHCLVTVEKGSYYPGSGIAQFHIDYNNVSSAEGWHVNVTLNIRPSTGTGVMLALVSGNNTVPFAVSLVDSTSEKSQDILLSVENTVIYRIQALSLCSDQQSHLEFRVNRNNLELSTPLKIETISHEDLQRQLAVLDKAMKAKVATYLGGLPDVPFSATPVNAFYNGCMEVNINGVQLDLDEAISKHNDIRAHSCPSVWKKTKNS
# Assay: competition (IC50) ELISA with biotinylated tracer peptide JBS0684
# Type: binding
# Conditions: competition ELISA, tracer JBS0684; re-synthesized peptides
# Description: The new peptide candidates were synthesized (purity >60%) and screened for affinity in a competitive binding assay (ELISA IC50) and activity in a thrombin generation assay (CAT). The competition (IC50) ELISA was performed using biotinylated tracer peptide JBS0684 to compete for Protein S-binding with candidate peptides. Peptides that compete with the tracer bind the same region of Protein S as the tracer (and each other). Ninety-six well PolySorp plates (Nunc) were coated with 3 μg/mL Protein S in coating buffer (15 mM Na2CO3, 35 mM NaHCO3, pH 9.6) over night. Plates were washed three times with wash buffer (HNaT: 175 mM NaCl, 25 mM HEPES, 5 mM CaCl2, 0.1% Tween 80, pH 7.35), and blocked with 100 μl 2% yeast extract in HNaT for at least 1 hour. Plates were then washed three times with HNaT. JBS0684 was applied at a concentration corresponding to the EC90 value determined in the binding ELISA. A competitor stock solution of peptide (10 mM) was diluted 1/33.3 in HNaT without HSA, and a serial ⅓ dilution was prepared with HNaT with 3% DMSO. The dilution was further diluted with the biotinylated tracer peptide in a ratio of 1:6 (20 μl competitor dilution and 100 μl tracer peptide). The mixture of competitor and tracer peptide was applied to the Protein S-coated microtiter plate and incubated for 1.5 hours. The plates were washed three times with HNaT. Peptide-Protein S binding was detected by applying HRP-conjugated streptavidin to the microtiter plate, incubating the mixture for one hour, washing the plate three times with HNaT, applying TMB (3,3′5,5′-Tetramethylbenzidin), and detecting the subsequent chromogenic conversion of TMB by HRP. IC50 measurements of peptides are provided herein (see, e.g., Table 3).
row,Compound,IC50
1,CC(=O)N[C@H](C(=O)NCC(=O)N[C@@H](Cc1c[nH]cn1)C(=O)N[C@H](C(=O)N[C@@H](CO)C(=O)N[C@@H](C)C(=O)NCC(=O)N[C@@H](Cc1c[nH]c2ccccc12)C(=O)N[C@@H](Cc1ccc(O)cc1)C(=O)N[C@@H](CC(=O)O)C(=O)N[C@@H](Cc1ccc(O)cc1)C(=O)N[C@@H](CC(N)=O)C(=O)N[C@@H](Cc1ccccc1)C(=O)N[C@@H](CC(=O)O)C(=O)N[C@@H](C)C(=O)N[C@@H](Cc1ccc(O)cc1)C(=O)N[C@@H](CCCNC(=N)N)C(=O)N[C@@H](CCC(=O)O)C(=O)N[C@@H](Cc1ccccc1)C(=O)N[C@H](C(N)=O)[C@@H](C)O)C(C)C)[C@@H](C)O [JBS2528] (Ac-TGHVSAGWYDYNFDAYREFT-NH2),5.2 nM
2,CC(=O)N[C@H](C(=O)NCC(=O)N[C@@H](CCCCN)C(=O)N[C@H](C(=O)N[C@@H](CO)C(=O)N[C@@H](C)C(=O)NCC(=O)N[C@@H](Cc1c[nH]c2ccccc12)C(=O)N[C@@H](Cc1ccc(O)cc1)C(=O)N[C@@H](CC(=O)O)C(=O)N[C@@H](Cc1ccc(O)cc1)C(=O)N[C@@H](CC(N)=O)C(=O)N[C@@H](Cc1ccccc1)C(=O)N[C@@H](CC(=O)O)C(=O)N[C@@H](Cc1c[nH]cn1)C(=O)N[C@@H](Cc1ccc(O)cc1)C(=O)N[C@@H](CCCNC(=N)N)C(=O)N[C@@H](CCC(=O)O)C(=O)N[C@@H](Cc1ccccc1)C(=O)N[C@H](C(N)=O)[C@@H](C)O)C(C)C)[C@@H](C)O [JBS2592] (Ac-TGKVSAGWYDYNFDHYREFT-NH2),5.6 nM

# Stronger by IC50, values ahead:
row,IC50,Compound
1,2.3 nM,CC(=O)N[C@H](C(=O)NCC(=O)N[C@@H](Cc1c[nH]cn1)C(=O)N[C@H](C(=O)N[C@@H](CO)C(=O)N[C@@H](C)C(=O)NCC(=O)N[C@@H](Cc1c[nH]c2ccccc12)C(=O)N[C@@H](Cc1ccc(O)cc1)C(=O)N[C@@H](CC(=O)O)C(=O)N[C@@H](Cc1ccc(O)cc1)C(=O)N[C@@H](CC(N)=O)C(=O)N[C@@H](CC(C)C)C(=O)N[C@@H](CC(=O)O)C(=O)N[C@@H](Cc1c[nH]cn1)C(=O)N[C@@H](Cc1ccc(O)cc1)C(=O)N[C@@H](CCCNC(=N)N)C(=O)N[C@@H](CCC(=O)O)C(=O)N[C@@H](Cc1ccccc1)C(=O)N[C@H](C(N)=O)[C@@H](C)O)C(C)C)[C@@H](C)O [JBS2582] (Ac-TGHVSAGWYDYNLDHYREFT-NH2)
2,1.6 nM,CC(=O)N[C@H](C(=O)NCC(=O)N[C@@H](Cc1c[nH]cn1)C(=O)N[C@H](C(=O)N[C@@H](CO)C(=O)N[C@@H](C)C(=O)NCC(=O)N[C@@H](Cc1c[nH]c2ccccc12)C(=O)N[C@@H](Cc1ccc(O)cc1)C(=O)N[C@@H](CC(=O)O)C(=O)N[C@@H](Cc1ccc(O)cc1)C(=O)N[C@@H](CC(N)=O)C(=O)N[C@@H](Cc1ccccc1)C(=O)N[C@@H](CC(=O)O)C(=O)N[C@@H](Cc1c[nH]cn1)C(=O)N[C@@H](Cc1ccc(O)cc1)C(=O)N[C@@H](Cc1ccccc1)C(=O)N[C@@H](CCC(=O)O)C(=O)N[C@@H](Cc1ccccc1)C(=O)N[C@H](C(N)=O)[C@@H](C)O)C(C)C)[C@@H](C)O [JBS2625] (Ac-TGHVSAGWYDYNFDHYFEFT-NH2)
3,3.1 nM,CC(=O)N[C@H](C(=O)N1CCC[C@H]1C(=O)N[C@@H](Cc1c[nH]cn1)C(=O)N[C@H](C(=O)N[C@@H](CO)C(=O)N[C@@H](C)C(=O)NCC(=O)N[C@@H](Cc1c[nH]c2ccccc12)C(=O)N[C@@H](Cc1ccc(O)cc1)C(=O)N[C@@H](CC(=O)O)C(=O)N[C@@H](Cc1ccc(O)cc1)C(=O)N[C@@H](CC(N)=O)C(=O)N[C@@H](Cc1ccccc1)C(=O)N[C@@H](CC(=O)O)C(=O)N[C@@H](Cc1c[nH]cn1)C(=O)N[C@@H](Cc1ccc(O)cc1)C(=O)N[C@@H](CCCNC(=N)N)C(=O)N[C@@H](CCC(=O)O)C(=O)N[C@@H](Cc1ccccc1)C(=O)N[C@H](C(N)=O)[C@@H](C)O)C(C)C)[C@@H](C)O [JBS2629] (Ac-TPHVSAGWYDYNFDHYREFT-NH2)

# Reference: patent US10124033B2, “Peptides and methods of use” (BAXALTA INCORPORATED, priority 2014, dated 2018)
